Experimental data from EP4775574A1, “FURAN RING-CONTAINING COMPOUND, PHARMACEUTICAL COMPOSITION THEREOF, AND USE THEREOF” (Wuhan Xirui Pharmaceutical Technology Co., Ltd, priority 2023, dated 2025).

How the values were obtained:
Format in all cases: cell-based
Nav1.1 = Nav1.1 (Homo sapiens, UniProt P35498); assay: Sodium channel selectivity test, patch-clamp, Nav1.1; conditions: read-out: Nav1.1 Inhibition rate (%)
From the text: (§1) Test Example 3: Selectivity test of the compounds of the present disclosure on sodium channels • 1. Experimental objective: The effects of the compounds on the current of the voltage-gated sodium channel (NaV) subtypes 1.1-1.7 were detected by patch-clamp technique • 2. Experimental materials and instruments • 2.1 Cell lines: CHO/HEK293 cell lines stably expressing Nav1.1-1.7 sodium channels, constructed in-house by the laboratory of Beijing ICE Bioscience Co., Ltd., (Reference: Jarvis MF, Honore P, Shieh CC, Chapman M, Joshi S, Zhang XF, Kort M, Carroll W, Marron B, Atkinson R, Thomas J, Liu D, Krambis M, Liu Y, McGaraughty S, Chu K, Roeloffs R, Zhong C, Mikusa JP, Hernandez G, Gauvin D, Wade C, Zhu C, Pai M, Scanio M, Shi L, Drizin I, Gregg R, Matulenko M, Hakeem A, Gross M, Johnson M, Marsh K, Wagoner PK, Sullivan JP, Faltynek CR, Krafte DS. A-803467, a potent and selective Nav1.8 sodium channel blocker, attenuates neuropathic and inflammatory pain in the rat. Proc Natl Acad Sci U S A. 2007 May 15;104(20):8520-5. doi: 10.1073/pnas.0611364104. Epub 2007 May 2. PMID: 17483457; PMCID: PMC1895982.), gene information Nav1.1: NM_006920; Nav1.2: NM_001040142; Nav1.3: NM_006922; Nav1.4: NM_000334; Nav1.5: NM198056; Nav1.6: NM014191; Nav1.7: […]. • 2.2 Compounds: Dissolved in DMSO, with sample concentration prepared at 30 µM. • 3. Experimental methods • 3.1 Cell culture • (1) Maintenance medium: CHO cells were cultured in HAM'S/F-12 medium containing 10% fetal bovine serum, 100 µg/mL Zeocin, and 10 µg/mL Blasticidin, under conditions of 37°C incubation temperature and 5% carbon dioxide concentration. HEK-293 cells were cultured in DMEM medium containing 10% fetal bovine serum and 800 µg/mL G418; the culture temperature was 37°C, and the carbon dioxide concentration was 5%. • (2) Cell passage: The old medium was removed, and the cells were washed once with PBS, then 1 mL of 0.25%-Trypsin-EDTA solution was added and incubated at 37°C for approximately 1.5 min. When the cells were detached from the bottom of the dish, about 5 mL of preheated complete medium at 37°C was added. […]

Nav1.6 = Nav1.6 (Homo sapiens, UniProt Q9UQD0); assay: Sodium channel selectivity test, patch-clamp, Nav1.6; conditions: read-out: Nav1.6 Inhibition rate (%)
Nav1.6, sequence (Q9UQD0 whole entry): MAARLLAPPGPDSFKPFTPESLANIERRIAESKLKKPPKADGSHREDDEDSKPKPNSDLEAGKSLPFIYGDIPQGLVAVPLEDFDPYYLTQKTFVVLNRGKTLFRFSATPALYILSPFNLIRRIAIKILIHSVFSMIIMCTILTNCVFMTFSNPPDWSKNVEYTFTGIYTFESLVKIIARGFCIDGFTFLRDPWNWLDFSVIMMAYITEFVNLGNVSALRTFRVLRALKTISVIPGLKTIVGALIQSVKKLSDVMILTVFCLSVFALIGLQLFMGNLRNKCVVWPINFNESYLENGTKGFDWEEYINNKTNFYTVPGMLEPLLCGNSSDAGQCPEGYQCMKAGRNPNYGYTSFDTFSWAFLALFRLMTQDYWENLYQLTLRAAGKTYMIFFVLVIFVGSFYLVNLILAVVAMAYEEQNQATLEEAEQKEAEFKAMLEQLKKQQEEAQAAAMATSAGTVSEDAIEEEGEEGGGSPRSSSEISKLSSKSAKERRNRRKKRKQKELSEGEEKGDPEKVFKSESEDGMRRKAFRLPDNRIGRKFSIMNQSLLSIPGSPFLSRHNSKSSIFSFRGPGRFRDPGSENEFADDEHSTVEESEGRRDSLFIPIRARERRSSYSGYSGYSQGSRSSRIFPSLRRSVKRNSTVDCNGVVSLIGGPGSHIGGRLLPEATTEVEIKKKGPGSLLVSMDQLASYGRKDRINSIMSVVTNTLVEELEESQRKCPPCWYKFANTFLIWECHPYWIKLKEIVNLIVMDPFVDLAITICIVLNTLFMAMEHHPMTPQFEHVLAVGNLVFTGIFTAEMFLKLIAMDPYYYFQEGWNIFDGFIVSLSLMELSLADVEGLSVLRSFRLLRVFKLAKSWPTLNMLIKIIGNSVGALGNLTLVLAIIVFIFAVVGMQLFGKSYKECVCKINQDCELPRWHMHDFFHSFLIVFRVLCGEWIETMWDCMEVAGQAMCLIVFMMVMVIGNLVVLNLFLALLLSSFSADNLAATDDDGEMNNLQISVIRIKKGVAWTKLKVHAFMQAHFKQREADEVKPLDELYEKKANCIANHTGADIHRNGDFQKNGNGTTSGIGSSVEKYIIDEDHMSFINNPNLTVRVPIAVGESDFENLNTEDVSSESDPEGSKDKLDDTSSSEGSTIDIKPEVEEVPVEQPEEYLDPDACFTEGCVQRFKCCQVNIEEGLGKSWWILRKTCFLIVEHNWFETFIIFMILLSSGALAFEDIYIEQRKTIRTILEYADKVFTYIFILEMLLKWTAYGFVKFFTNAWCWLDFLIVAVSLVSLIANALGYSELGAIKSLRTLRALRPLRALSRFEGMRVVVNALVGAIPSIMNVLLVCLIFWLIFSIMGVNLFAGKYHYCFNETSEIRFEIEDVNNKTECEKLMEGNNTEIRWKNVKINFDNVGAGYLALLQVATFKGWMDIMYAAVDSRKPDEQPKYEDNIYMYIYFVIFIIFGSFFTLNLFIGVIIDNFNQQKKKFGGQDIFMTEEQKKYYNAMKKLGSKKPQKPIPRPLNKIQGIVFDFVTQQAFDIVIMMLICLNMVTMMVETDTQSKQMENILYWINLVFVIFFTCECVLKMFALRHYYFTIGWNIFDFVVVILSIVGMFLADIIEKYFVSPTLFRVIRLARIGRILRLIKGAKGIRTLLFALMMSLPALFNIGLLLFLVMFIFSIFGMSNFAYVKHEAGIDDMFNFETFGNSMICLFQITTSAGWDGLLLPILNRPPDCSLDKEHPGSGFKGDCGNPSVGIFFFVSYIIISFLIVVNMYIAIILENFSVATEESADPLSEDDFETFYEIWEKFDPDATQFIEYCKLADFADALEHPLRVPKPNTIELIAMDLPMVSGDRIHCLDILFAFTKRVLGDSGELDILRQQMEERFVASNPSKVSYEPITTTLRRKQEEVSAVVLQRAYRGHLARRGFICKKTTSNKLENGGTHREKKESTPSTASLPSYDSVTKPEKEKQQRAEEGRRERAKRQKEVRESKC
From the text: as §1

Nav1.8 sodium channel = target: T1, Nav1.8 sodium channel (Homo sapiens, UniProt Q9Y5Y9); assay: Blocking activity against sodium channel 1.8 (Nav1.8), whole-cell patch-clamp, inhibition rate; conditions: CHO cell line stably expressing Nav1.8; patch-clamp; test concentration not given
T1 construct: host or cells: CHO
T1 sequence (Q9Y5Y9 whole entry): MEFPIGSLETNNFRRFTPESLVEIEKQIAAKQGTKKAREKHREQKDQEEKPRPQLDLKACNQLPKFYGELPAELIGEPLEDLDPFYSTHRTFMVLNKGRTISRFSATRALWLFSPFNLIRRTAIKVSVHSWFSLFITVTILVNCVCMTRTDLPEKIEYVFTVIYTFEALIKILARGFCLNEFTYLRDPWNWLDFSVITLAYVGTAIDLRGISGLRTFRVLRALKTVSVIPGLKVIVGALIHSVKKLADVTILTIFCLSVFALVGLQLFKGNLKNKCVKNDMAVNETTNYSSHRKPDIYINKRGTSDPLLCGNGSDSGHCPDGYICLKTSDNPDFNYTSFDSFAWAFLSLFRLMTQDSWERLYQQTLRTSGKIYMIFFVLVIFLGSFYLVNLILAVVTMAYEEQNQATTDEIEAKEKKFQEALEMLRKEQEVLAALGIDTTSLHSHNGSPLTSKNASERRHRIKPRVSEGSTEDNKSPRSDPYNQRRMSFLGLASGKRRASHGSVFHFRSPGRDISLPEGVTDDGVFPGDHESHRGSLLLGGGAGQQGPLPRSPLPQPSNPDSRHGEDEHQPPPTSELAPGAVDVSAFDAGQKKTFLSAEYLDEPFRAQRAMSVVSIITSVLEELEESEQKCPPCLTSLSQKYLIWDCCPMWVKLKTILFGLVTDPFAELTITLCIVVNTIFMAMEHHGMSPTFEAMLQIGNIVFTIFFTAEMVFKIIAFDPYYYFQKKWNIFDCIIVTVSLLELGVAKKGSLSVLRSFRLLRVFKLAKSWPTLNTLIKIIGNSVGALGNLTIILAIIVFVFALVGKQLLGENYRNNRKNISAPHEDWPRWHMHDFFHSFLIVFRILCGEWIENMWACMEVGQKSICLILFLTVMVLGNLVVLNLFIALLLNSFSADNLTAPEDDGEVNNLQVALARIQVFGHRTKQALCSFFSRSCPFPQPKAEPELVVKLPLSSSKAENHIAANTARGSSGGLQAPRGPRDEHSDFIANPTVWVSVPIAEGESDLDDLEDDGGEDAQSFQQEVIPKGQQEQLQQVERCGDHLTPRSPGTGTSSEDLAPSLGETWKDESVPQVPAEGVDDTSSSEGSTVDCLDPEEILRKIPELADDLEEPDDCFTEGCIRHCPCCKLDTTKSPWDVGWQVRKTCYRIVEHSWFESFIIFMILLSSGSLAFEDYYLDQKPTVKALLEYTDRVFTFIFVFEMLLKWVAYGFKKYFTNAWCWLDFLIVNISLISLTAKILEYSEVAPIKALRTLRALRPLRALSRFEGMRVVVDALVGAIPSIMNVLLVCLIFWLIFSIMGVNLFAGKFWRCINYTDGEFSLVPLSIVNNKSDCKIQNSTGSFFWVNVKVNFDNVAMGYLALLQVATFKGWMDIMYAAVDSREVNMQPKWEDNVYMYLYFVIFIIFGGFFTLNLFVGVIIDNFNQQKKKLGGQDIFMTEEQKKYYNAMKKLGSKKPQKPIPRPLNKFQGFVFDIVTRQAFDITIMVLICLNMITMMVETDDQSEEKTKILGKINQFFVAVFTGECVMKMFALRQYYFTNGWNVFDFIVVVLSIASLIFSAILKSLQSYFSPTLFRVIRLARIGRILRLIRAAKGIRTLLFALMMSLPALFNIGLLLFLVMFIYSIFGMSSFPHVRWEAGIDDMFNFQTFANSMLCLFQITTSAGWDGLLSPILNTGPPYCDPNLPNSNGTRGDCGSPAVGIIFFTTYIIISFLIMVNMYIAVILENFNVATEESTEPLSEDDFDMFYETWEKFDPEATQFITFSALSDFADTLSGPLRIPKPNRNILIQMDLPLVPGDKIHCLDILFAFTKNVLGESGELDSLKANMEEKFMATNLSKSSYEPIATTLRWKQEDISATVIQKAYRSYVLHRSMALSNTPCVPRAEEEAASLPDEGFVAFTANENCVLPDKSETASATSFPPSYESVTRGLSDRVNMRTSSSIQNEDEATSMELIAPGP
Procedure: Experimental objective: The effects of the compounds on the current of the voltage-gated sodium channel (NaV) 1.8 subtype were detected by patch-clamp technique • 2. […] When the cells were detached from the bottom of the dish, about 5 mL of preheated complete medium at 37°C was added. The cell suspension was gently pipetted up and down to separate the aggregated cells. The cell suspension was transferred to a sterile centrifuge tube and centrifuged at 1000 rpm for 5 min to collect the cells. […] First, the voltage was stepped from -130 mV to -10 mV in 10 mV increments for 5 s, and then a 0 mV depolarizing pulse was applied to obtain the half-inactivation voltage (Vhalf). The resting state and half-inactivated state of the sodium current were detected by using a double-pulse protocol. First, the first depolarizing pulse (TP1) was applied to 0 mV for 50 ms to detect the sodium current in the resting state. Then, the voltage was adjusted to Vhalf and maintained for 5 s, followed by restoration of the voltage to -120 mV and maintenance for 20 ms, after which the second depolarizing pulse (TP2) was applied to 0 mV for 50 ms to detect the sodium current in the half-inactivated state. Finally, the voltage was restored to the clamping voltage of -120 mV. Data were repeatedly collected every […] to observe the effect of the drug on the peak values of sodium currents in the two different states. Experimental data were collected by the EPC 10 amplifier (HEKA) and stored in the PatchMaster (HEKA) software. • (2) During patch clamp operation, capillary glass tubes were first pulled into recording electrodes using a microelectrode puller, then the electrodes filled with intracellular solution were installed into the microelectrode holder. Under an inverted microscope, the micromanipulator was used to bring the recording electrode into contact with the cell, and negative pressure suction was applied to form a GΩ seal. At this time, fast capacitance compensation was performed, and then negative pressure was continuously applied to rupture the cell membrane and form the whole-cell recording mode. Finally, slow capacitance compensation was performed, and related parameters were recorded. Leak compensation was not applied. • (3) When the sodium current of whole-cell recording became stable, drug administration was started, and each drug concentration was applied for 5 min (or until the current became stable) before the next concentration was tested. The coverslip coated with cells was placed in the recording bath under an inverted microscope, and the blank control external solution and the test compound working solution were perfused through the recording bath in sequence from low concentration to high concentration by gravity, thereby acting on the cells, while a peristaltic pump was used for liquid exchange during recording. The current detected in the external solution without compounds for each cell was used as its own control group. Each concentration was independently tested twice. All electrophysiological experiments were conducted at room temperature.
First, the current after the effect of each drug concentration and the blank control current were normalized, then the inhibition rate corresponding to each drug concentration was calculated, that is, (1-Icompound /Icontrol), and the mean, standard deviation (SD), and standard error (SE) of the inhibition rate for each concentration were calculated, and the data were expressed as mean ± SE.

| Structure (SMILES) | inhibition at 30 µM (Nav1.1) | inhibition at 30 µM (Nav1.6) | Inhibition rate (%) (Nav1.8 sodium channel) |
| --- | --- | --- | --- |
| COCCOc1c([C@H]2[C@H](C(=O)Nc3ccc(F)c(C(=N)NO)c3)O[C@@](C)(C(F)(F)F)[C@H]2C)ccc(F)c1F [Example 10] | 28.4% | 36% | 99.65% |
| C[C@H]1[C@@H](c2ccc(F)c(F)c2OC2COC2)[C@H](C(=O)Nc2ccc(F)c(C(=N)NO)c2)O[C@@]1(C)C(F)(F)F [Example 11] | 1.96% | 19.5% | 87.35% |
| COc1c([C@H]2[C@H](C(=O)Nc3ccnc(C(N)=O)c3)O[C@@](C)(C(F)(F)F)[C@H]2C)ccc(F)c1F [Reference compound, reference compound] | 57.7% | 42.9% | 94.49% |
